Results on 20 molecules are retold here after PubChem BioAssay AID296 (DTP/NCI, 2004).

Several values for one entry are separate records, joined by “and”; a condition that tells them apart may be missing. Equal entries are not always repeated. Records with an inconclusive call do not appear.

This experiment relates to MX-1 breast xenograft, nude mice, tumor weight T/C. Kind of experiment: NCI In Vivo Anticancer Drug Screen. Data for tumor model Human Mammary Carcinoma MX-1 Xenograft (intrarenal inoculation) in NU/NU Swiss (nude) mice. Particulars: endpoint: mean tumor weight change, higher = larger tumour. In outline: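 Compound dosed to mice with transplantable tumor; vehicle group as control. Endpoint survival or tumour size, reported as T/C.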

Where [1] appears, read: dose: 200.0 mg/kg/injection, schedule: Q04DX003 (sc), vehicle: saline with Tween-80.
[2] abbreviates: dose: 400.0 mg/kg/injection, schedule: Q04DX003 (sc), vehicle: saline with Tween-80.
The mark [3] stands for this setting: dose: 2.0 mg/kg/injection, schedule: Q01DX010 (sc), vehicle: saline.
[4] abbreviates: dose: 100.0 mg/kg/injection, schedule: Q01DX010 (sc), vehicle: suspension in saline.
Setting [5] is: dose: 200.0 mg/kg/injection, schedule: Q01DX010 (sc), vehicle: suspension in saline.
Where [6] appears, read: dose: 300.0 mg/kg/injection, schedule: Q04DX003 (sc), vehicle: saline.
Where [7] appears, read: dose: 600.0 mg/kg/injection, schedule: Q04DX003 (sc), vehicle: saline.
Setting [8] is: dose: 1200.0 mg/kg/injection, schedule: Q04DX003 (sc), vehicle: saline.
[9] abbreviates: dose: 2400.0 mg/kg/injection, schedule: Q04DX003 (sc), vehicle: saline.

As to `C[Si](C)(C)O/C=C1\CCCCC1=O`, the T/C reads like this: under setting [1], 94 % of control; under setting [2], 89 % of control.
Consider `CC[C@H]1CN2CCc3cc(OC)c(OC)cc3[C@@H]2C[C@@H]1C[C@H]1NCCc2cc(OC)c(OC)cc21`, for which the T/C under setting [3] is 114 % of control and the T/C (dose: 4.0 mg/kg/injection, schedule: Q01DX010 (sc), vehicle: saline) was 108 % of control.
In the case of `CC12CC(C(=O)O)C3(O)CC(C)(C1)CC(C)(C2)C3` (stereo not drawn) (tested in a mixture with another compound), the T/C (dose: 300.0 mg/kg/injection, schedule: Q04DX003 (sc), vehicle: Klucel (hydroxypropylcellulose) (HPC)) is 87 % of control; the T/C (dose: 600.0 mg/kg/injection, schedule: Q04DX003 (sc), vehicle: Klucel (hydroxypropylcellulose) (HPC)) was 168 % of control; the T/C (dose: 1200.0 mg/kg/injection, schedule: Q04DX003 (sc), vehicle: Klucel (hydroxypropylcellulose) (HPC)) was 102 % of control.
Regarding `Cc1c(N)nc(C(CC(N)=O)NCC(N)C(N)=O)nc1C(=O)NC(C(=O)NC(C)C(O)C(C)C(=O)NC(C(=O)NCCc1nc(-c2nc(C(=O)NCCCNC(C)c3ccccc3)cs2)cs1)C(C)O)C(OC1OC(CO)C(O)C(O)C1OC1OC(CO)C(O)C(OC(N)=O)C1O)c1cnc[nH]1` (stereo not drawn), the T/C was 114 % of control under setting [3]; 92 % of control (dose: 8.0 mg/kg/injection, schedule: Q01DX010 (sc), vehicle: saline); 89 % of control (dose: 16.0 mg/kg/injection, schedule: Q01DX010 (sc), vehicle: saline).
Take `O=C1CN(CN2CCOCC2)C(=O)CN1CN1CCOCC1`: the T/C was 117 % of control (dose: 25.0 mg/kg/injection, schedule: Q01DX010 (sc), vehicle: suspension in saline); 119 % of control (dose: 50.0 mg/kg/injection, schedule: Q01DX010 (sc), vehicle: suspension in saline); 161 % of control under setting [4]; 87 % of control under setting [5].
Take `CC(=S)NC(O)C(=O)c1ccccc1` (stereo not drawn): the T/C under setting [1] is 163 % of control; the T/C under setting [2] was 122 % of control; the T/C (dose: 800.0 mg/kg/injection, schedule: Q04DX003 (sc), vehicle: saline with Tween-80) is 152 % of control; the T/C (dose: 1600.0 mg/kg/injection, schedule: Q04DX003 (sc), vehicle: saline with Tween-80) is 123 % of control.
For the molecule `Nc1nc([Se])c2ncn(C3OC(CO)C(O)C3O)c2n1` (stereo not drawn), the T/C by setting is: under setting [3], 85 % of control and 101 % of control; (dose: 6.66 mg/kg/injection, schedule: Q04DX003 (ip), vehicle: saline) 76 % of control; (dose: 6.66 mg/kg/injection, schedule: Q04DX003 (sc), vehicle: saline) 72 % of control; (dose: 8.0 mg/kg/injection, schedule: Q01DX010 (ip), vehicle: saline) 45 % of control; (dose: 13.33 mg/kg/injection, schedule: Q04DX003 (ip), vehicle: saline) 46 % of control; (dose: 26.65 mg/kg/injection, schedule: Q04DX003 (ip), vehicle: saline) 74 % of control. For the same molecule, the T/C is 63 % of control (dose: 53.3 mg/kg/injection, schedule: Q04DX003 (ip), vehicle: saline) and 89 % of control (dose: 53.33 mg/kg/injection, schedule: Q04DX003 (sc), vehicle: saline).
As for `O=c1[nH]cnc2n[nH]nc12`, the T/C reads like this: (dose: 100.0 mg/kg/injection, schedule: Q04DX003 (sc), vehicle: Klucel (hydroxypropylcellulose) (HPC)) 54 % of control; (dose: 200.0 mg/kg/injection, schedule: Q04DX003 (sc), vehicle: Klucel (hydroxypropylcellulose) (HPC)) 27 % of control; (dose: 400.0 mg/kg/injection, schedule: Q04DX003 (sc), vehicle: Klucel (hydroxypropylcellulose) (HPC)) 48 % of control; (dose: 800.0 mg/kg/injection, schedule: Q04DX003 (sc), vehicle: Klucel (hydroxypropylcellulose) (HPC)) 31 % of control.
Consider `O=c1n[n+]([O-])ccn1C1OC(CO)C(O)C1O` (stereo not drawn), for which the T/C runs as follows: under setting [4], 56 % of control; under setting [5], 91 % of control; (dose: 400.0 mg/kg/injection, schedule: Q01DX010 (sc), vehicle: suspension in saline) 86 % of control.
As to `COc1ccc(CC2C(=O)NC(C)C(=O)N(C)C3Cc4ccc(cc4)Oc4cc(ccc4O)CC(C(=O)NC(C)C(=O)NC(C)C(=O)N2C)N(C)C3=O)cc1` (stereo not drawn), the T/C by setting is: (dose: 8.0 mg/kg/injection, schedule: Q04DX003 (sc), vehicle: saline with Tween-80) 28 % of control and 44 % of control and 47 % of control; (dose: 16.0 mg/kg/injection, schedule: Q04DX003 (sc), vehicle: saline with Tween-80) 20 % of control and 26 % of control and 43 % of control; (dose: 32.0 mg/kg/injection, schedule: Q04DX003 (sc), vehicle: saline with Tween-80) 6 % of control and 18 % of control.
With `COP12(OCCO1)SC(C(F)(F)F)=C(C(F)(F)F)S2`, the T/C by setting is: (dose: 125.0 mg/kg/injection, schedule: Q04DX003 (sc), vehicle: saline with Tween-80) 119 % of control; (dose: 250.0 mg/kg/injection, schedule: Q04DX003 (sc), vehicle: saline with Tween-80) 92 % of control.
In the case of `COc1cccc2c1C(=N)c1c(O)c3c(c(O)c1C2=O)C[C@@](O)(C(C)=O)C[C@@H]3OC1CC(N)C(O)C(C)O1` (stereo partly drawn), the T/C (dose: 4.0 mg/kg/injection, schedule: Q01DX010 (sc), vehicle: water) was 62 % of control; the T/C (dose: 16.0 mg/kg/injection, schedule: Q01DX010 (sc), vehicle: water) is 13 % of control and 21 % of control.
Turning to `COc1cc(OC)c(NC(=O)ON2C(=O)c3ccccc3C2=O)cc1Cl`, the T/C was 95 % of control (dose: 50.0 mg/kg/injection, schedule: Q04DX003 (sc), vehicle: saline with Tween-80); 103 % of control (dose: 100.0 mg/kg/injection, schedule: Q04DX003 (sc), vehicle: saline with Tween-80); 85 % of control under setting [1]; 114 % of control under setting [2].
On to `Nc1nc(-c2ccccc2)c(Br)c(=O)[nH]1`, for which the T/C by setting is: (dose: 300.0 mg/kg/injection, schedule: Q04DX003 (sc), vehicle: saline with Tween-80) 96 % of control; (dose: 600.0 mg/kg/injection, schedule: Q04DX003 (sc), vehicle: saline with Tween-80) 93 % of control; (dose: 1200.0 mg/kg/injection, schedule: Q04DX003 (sc), vehicle: saline with Tween-80) 109 % of control; (dose: 2400.0 mg/kg/injection, schedule: Q04DX003 (sc), vehicle: saline with Tween-80) 65 % of control.
With `CCCCCC[C@@H](O)C/C=C\CCCCCCCC(=O)OCCO`, the T/C under setting [6] was 87 % of control, the T/C under setting [7] is 104 % of control, the T/C under setting [8] was 96 % of control and the T/C under setting [9] was 103 % of control.
As for `CCCCC(=O)OCC(=O)[C@]1(O)Cc2c(O)c3c(c(O)c2[C@@H](OC2CC(NC(=O)C(F)(F)F)C(O)C(C)O2)C1)C(=O)c1c(OC)cccc1C3=O` (stereo partly drawn), the T/C is 91 % of control (dose: 64.0 mg/kg/injection, schedule: Q01DX010 (sc), vehicle: distilled water + Tween-80); 56 % of control (dose: 128.0 mg/kg/injection, schedule: Q01DX010 (sc), vehicle: distilled water + Tween-80); 34 % of control (dose: 256.0 mg/kg/injection, schedule: Q01DX010 (sc), vehicle: distilled water + Tween-80).
For `Cn1cnc([N+](=O)[O-])c1S(=O)(=O)NCN1CCOCC1`, the T/C by setting is: (dose: 25.0 mg/kg/injection, schedule: Q01DX010 (sc), vehicle: Klucel (hydroxypropylcellulose) (HPC)) 94 % of control; (dose: 50.0 mg/kg/injection, schedule: Q01DX010 (sc), vehicle: Klucel (hydroxypropylcellulose) (HPC)) 76 % of control; (dose: 100.0 mg/kg/injection, schedule: Q01DX010 (sc), vehicle: Klucel (hydroxypropylcellulose) (HPC)) 94 % of control; (dose: 200.0 mg/kg/injection, schedule: Q01DX010 (sc), vehicle: Klucel (hydroxypropylcellulose) (HPC)) 78 % of control.
With `CC1CN1C(=O)NCCCCCCNC(=O)N1CC1C` (stereo not drawn), the T/C is, setting by setting: (dose: 5.0 mg/kg/injection, schedule: Q04DX003 (sc), vehicle: Klucel (hydroxypropylcellulose) (HPC)) 21 % of control; (dose: 40.0 mg/kg/injection, schedule: Q04DX003 (sc), vehicle: Klucel (hydroxypropylcellulose) (HPC)) -86 % of control and -63 % of control.
As to `CCC(CC)COC(=O)c1ccccc1C(=O)OCC(CC)CC`, the T/C by setting is: under setting [6], 112 % of control; under setting [7], 82 % of control; under setting [8], 110 % of control; under setting [9], 88 % of control.
As for `COc1cc(NCCCCCCCNC(C)C)c2nccc(C)c2c1`, the T/C by setting is: (dose: 37.5 mg/kg/injection, schedule: Q04DX003 (sc), vehicle: saline) 93 % of control; (dose: 75.0 mg/kg/injection, schedule: Q04DX003 (sc), vehicle: saline) 76 % of control; (dose: 150.0 mg/kg/injection, schedule: Q04DX003 (sc), vehicle: saline) 66 % of control.
